This passage reports % of control and % of inhibition results from ChEMBL document CHEMBL5465560, “Selectivity Literature for EUbOPEN Chemogenomic Library” (2024).

The test system of experiment [1] is Mast/stem cell growth factor receptor Kit (Homo sapiens), P10721 [V559D]. The following applies: at 10 µM.
Experiment [2] addresses T1, Mitogen-activated protein kinase kinase kinase 5 (Homo sapiens) (UniProt Q99683).
T1 sequence (whole entry): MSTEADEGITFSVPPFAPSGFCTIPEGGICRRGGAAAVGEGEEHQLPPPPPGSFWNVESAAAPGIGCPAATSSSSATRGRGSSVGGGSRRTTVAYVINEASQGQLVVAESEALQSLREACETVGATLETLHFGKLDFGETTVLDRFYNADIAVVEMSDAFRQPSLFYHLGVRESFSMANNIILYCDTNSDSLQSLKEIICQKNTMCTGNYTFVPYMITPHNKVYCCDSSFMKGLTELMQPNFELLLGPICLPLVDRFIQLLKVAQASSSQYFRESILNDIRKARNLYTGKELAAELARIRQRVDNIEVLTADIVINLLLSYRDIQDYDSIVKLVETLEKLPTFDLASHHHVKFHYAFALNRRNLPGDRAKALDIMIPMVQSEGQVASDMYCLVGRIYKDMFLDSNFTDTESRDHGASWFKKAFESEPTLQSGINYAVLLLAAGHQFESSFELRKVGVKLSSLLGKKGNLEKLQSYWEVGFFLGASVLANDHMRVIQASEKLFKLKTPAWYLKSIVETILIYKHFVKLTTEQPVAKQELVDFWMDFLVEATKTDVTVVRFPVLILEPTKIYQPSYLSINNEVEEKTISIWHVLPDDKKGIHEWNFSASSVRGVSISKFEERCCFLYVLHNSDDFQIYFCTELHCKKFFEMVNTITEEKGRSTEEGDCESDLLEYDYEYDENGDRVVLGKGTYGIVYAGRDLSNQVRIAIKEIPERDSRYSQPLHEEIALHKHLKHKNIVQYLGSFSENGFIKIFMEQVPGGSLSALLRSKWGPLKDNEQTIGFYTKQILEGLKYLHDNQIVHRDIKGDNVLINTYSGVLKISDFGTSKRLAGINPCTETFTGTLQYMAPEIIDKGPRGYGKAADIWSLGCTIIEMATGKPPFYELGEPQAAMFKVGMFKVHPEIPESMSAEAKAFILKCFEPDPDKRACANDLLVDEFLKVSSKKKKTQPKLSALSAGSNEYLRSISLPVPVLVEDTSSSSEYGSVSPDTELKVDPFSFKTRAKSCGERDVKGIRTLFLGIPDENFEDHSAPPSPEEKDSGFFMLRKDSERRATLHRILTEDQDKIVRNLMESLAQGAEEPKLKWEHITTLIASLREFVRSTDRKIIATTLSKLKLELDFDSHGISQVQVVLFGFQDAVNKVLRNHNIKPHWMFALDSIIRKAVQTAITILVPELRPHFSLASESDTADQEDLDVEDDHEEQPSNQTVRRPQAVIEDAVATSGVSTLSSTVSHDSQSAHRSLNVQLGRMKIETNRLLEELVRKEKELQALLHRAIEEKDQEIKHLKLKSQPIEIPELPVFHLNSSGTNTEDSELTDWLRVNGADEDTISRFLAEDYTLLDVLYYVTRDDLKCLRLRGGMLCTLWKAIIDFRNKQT
In words: Selectivity interaction (ActivX KiNativ screen (kinase selectivity in THP-1 cell lysates)) EUB0000639a MAP3K5. The experiment is classed as subcellular. The following applies: lysate.

Experiment [3] deals with Protein-tyrosine kinase 2-beta (Homo sapiens) (UniProt Q14289). In words: Selectivity interaction (ActivX KiNativ screen (kinase selectivity in THP-1 cell lysates)) EUB0000639a PTK2B. It counts as subcellular. The following applies: lysate, at 1 µM.
Protein-tyrosine kinase 2-beta (Homo sapiens), sequence (Q14289 whole entry, looked up): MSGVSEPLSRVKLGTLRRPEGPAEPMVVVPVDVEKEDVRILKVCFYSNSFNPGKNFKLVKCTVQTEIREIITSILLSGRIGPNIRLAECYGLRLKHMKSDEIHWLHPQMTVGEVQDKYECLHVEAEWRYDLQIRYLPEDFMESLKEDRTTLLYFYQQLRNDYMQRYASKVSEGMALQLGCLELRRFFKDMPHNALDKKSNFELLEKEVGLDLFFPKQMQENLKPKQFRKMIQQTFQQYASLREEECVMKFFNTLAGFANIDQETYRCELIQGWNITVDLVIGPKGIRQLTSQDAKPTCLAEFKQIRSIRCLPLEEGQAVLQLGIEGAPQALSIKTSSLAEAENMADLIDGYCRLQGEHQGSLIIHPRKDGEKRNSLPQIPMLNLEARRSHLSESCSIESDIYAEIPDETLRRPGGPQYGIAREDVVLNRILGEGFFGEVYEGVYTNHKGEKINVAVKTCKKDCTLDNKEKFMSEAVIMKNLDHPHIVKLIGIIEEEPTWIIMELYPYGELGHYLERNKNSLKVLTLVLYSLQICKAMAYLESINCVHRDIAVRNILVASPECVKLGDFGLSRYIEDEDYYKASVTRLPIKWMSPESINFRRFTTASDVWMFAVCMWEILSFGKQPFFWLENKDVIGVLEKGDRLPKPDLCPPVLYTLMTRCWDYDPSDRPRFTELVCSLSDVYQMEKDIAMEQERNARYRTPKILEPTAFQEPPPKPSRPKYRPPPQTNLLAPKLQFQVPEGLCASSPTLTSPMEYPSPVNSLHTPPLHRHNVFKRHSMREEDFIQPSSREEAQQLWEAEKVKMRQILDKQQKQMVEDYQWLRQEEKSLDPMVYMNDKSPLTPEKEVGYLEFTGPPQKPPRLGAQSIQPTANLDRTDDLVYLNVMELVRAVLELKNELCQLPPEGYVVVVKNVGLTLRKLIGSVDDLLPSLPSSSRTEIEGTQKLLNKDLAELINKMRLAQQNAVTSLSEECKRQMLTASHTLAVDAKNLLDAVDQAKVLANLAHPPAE
The target in experiment [4] is RAC-alpha serine/threonine-protein kinase (Homo sapiens, UniProt P31749). Description: Selectivity interaction (Kinase panel (literature)) EUB0001199aCl AKT1. The settings on record: at 1 µM.
RAC-alpha serine/threonine-protein kinase, sequence (P31749 whole entry): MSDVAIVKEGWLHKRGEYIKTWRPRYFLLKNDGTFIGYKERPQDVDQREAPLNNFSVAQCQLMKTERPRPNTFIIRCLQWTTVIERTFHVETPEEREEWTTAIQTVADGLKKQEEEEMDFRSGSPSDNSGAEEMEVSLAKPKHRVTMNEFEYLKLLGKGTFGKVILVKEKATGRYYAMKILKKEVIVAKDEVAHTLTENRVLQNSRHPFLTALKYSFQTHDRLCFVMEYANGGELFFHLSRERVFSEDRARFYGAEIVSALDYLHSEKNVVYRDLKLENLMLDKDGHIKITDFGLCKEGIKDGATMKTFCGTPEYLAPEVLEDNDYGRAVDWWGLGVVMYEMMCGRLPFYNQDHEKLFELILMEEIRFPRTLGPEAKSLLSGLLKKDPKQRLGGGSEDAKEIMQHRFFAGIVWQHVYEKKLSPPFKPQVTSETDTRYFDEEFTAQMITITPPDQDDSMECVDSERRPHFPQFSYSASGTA
The target in experiment [5] is Dual specificity protein kinase CLK2 (Homo sapiens, UniProt P49760). In words: Selectivity interaction (KinomeScan (DiscoverX)) EUB0001079a CLK2. The following applies: at 1 µM.
Dual specificity protein kinase CLK2, sequence (P49760 whole entry, looked up): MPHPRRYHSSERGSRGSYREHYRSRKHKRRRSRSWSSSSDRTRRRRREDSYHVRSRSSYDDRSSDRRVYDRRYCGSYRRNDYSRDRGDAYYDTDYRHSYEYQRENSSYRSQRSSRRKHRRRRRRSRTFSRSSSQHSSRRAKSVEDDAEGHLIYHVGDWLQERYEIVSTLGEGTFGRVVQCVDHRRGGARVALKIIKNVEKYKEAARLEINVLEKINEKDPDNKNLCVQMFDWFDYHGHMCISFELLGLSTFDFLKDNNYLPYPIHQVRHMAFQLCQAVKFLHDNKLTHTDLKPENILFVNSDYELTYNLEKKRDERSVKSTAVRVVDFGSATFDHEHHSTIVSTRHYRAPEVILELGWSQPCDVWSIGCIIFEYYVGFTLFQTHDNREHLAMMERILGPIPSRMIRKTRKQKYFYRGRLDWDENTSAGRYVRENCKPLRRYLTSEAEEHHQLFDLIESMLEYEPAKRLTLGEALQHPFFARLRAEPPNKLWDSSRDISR

Mast/stem cell growth factor receptor Kit (Homo sapiens), P10721 [V559D], sequence (P10721 whole entry V559D): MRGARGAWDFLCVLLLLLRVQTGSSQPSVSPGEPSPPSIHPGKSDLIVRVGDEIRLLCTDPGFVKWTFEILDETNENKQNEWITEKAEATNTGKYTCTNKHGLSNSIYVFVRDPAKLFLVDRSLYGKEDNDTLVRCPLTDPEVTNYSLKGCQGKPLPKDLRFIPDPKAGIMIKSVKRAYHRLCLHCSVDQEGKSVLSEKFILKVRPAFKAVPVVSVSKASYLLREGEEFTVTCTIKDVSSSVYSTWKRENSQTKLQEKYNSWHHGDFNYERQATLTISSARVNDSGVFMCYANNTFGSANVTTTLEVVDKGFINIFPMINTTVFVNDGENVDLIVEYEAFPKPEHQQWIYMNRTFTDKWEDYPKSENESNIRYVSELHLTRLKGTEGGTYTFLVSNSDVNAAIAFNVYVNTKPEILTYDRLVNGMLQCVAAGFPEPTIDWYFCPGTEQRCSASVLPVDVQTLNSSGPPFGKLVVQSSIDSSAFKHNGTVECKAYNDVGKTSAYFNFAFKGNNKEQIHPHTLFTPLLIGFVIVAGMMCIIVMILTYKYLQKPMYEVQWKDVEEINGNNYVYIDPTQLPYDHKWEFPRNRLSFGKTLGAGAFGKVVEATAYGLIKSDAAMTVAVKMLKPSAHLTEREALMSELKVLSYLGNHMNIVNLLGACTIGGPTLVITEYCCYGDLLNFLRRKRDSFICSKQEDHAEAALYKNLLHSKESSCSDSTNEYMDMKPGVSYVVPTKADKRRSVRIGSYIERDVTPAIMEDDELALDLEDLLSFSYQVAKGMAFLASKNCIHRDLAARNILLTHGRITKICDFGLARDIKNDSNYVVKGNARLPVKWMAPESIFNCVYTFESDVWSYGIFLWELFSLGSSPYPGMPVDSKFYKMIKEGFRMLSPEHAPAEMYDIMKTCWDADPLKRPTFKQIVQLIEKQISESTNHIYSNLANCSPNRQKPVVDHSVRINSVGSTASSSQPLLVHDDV

In turn, `Cc1cc([C@@H](C)Nc2ccccc2C(=O)O)c2nc(N3CCOCC3)cc(=O)n2c1` [AZD-6482] had a % of control in experiment [1] of 91%.

On to `CC[C@@H]1[C@H](F)C(=O)N[C@@H]1COc1nccc2cc(C(N)=O)c(OC)cc12` [ZIMLOVISERTIB], for which the % of inhibition was -12.1% in experiment [2] (at 0.01 µM); -3.2% in experiment [2] (at 0.04 µM); 0% in experiment [2] (at 0.2 µM); -6.5% in experiment [2] (at 1 µM); -21.9% in experiment [2] (at 5 µM); -3.6% in experiment [3].

For the compound `CN1Cc2nccc(-c3cn(C)nc3-c3ccc(F)cc3)c2C1=O`, the % of inhibition in experiment [4] was -3%.

`Nc1cnc(N2CCc3cc(S(=O)(=O)Nc4c(F)cc(Cl)cc4F)cc(N4CCCC4=O)c32)nc1` [TP-020n] came in with a % of control in experiment [5] of 100%.
